In patent US9505821B2, “ATAP peptides, nucleic acids encoding the same and associated methods of use” (Rutgers, The State University of New Jersey, priority 2006, dated 2016):

Legend:
E. coli = experiment: toxicity of bacterial expression; format: cell-based; details: data not shown
[1] = planar lipid bilayer reconstitution, electrophysiology
Method: The 29-mer ATAP peptide ([…]) (SEQ ID NO.: 36) corresponding to the C-terminus of Bfl1 and its mutant mHR7 (KFEP-KSGWMTFLQVTG-LICQMLSLLKQYC) (SEQ ID NO.: 50) were synthesized by Abgent (San Diego, Calif.) with 99% purity as measured by HPLC and mass spectrometry. The peptides were dissolved in DMSO to make a 10 mM stock. Phospholipids were purchased from Avanti Polar Lipids (Birmingham, Ala.). Electrophysiological analysis was performed as described (Lam et al., 1998; Ma et al., 1988). Lipid bilayer membranes were formed across an aperture of 200 μm diameter with a 1:1 mixture of bovine brain phosphatidylethanolamine and bovine brain phosphatidylserine dissolved in n-decane at a concentration of 50 mg/ml. The recording solutions contained: cis, 200 mM KCl and 10 mM HEPES-Tris (pH 7.4); trans, 50 mM NaCl, 10 mM HEPES-Tris (pH 7.4). 1 n1 of 10 mM peptides dissolved in DMSO were added into 900 n1 of cis solution and fused into the bilayer. Voltage manipulation and currents were measured using an Axopatch 200 A amplifier (Axon Instruments, Foster City, Calif.). Data analyses were preformed with pClamp and TIPS software.

[2] = tested on: mitochondria membrane isolated from BMK-D3 cells; experiment: in vitro cytochrome c release from isolated mitochondria; format: biochemical, mouse; details: synthetic peptide 100 μM, 1 hour at 37° C.
Method: Mitochondria-free cytosol was prepared as previously described (Ko et al., 2003a). Briefly, 24 hours after transfection, HEK293 cells were collected by scraping, washed twice with ice-cold PBS, suspended in […] extraction buffer (50 mM PIPES-KOH, pH 7.4, 200 mM mannitol, 70 mM sucrose, 50 mM KCl, 5 mM EGTA, 2 mM MgCl2, 1 mM dithiothreitol and protease inhibitors), and incubated on ice for 30 minutes. Cells were lysed by Dounce homogenization and homogenates were centrifuged at 100,000 g for 15 minutes at 4° C. Supernatants were harvested and 20 μg of protein was analyzed by western blotting using monoclonal anticytochrome c antibody. For in vitro analysis of cytochrome c release, heavy membranes enriched in mitochondria were isolated from BMK-D3 cells using a mitochondria fractionation kit (Active Motif) according to the instructions of the manufacturer. Isolated mitochondria were diluted to a concentration of 1 mg/ml in the extraction buffer and incubated with synthetic ATAP or mHR7 peptides (100 μM) or DMSO as control for 1 hour at 37° C. The reactions were then centrifuged at 13,000 g for 10 minutes and the resulting pellets and supernatants were analyzed by SDS-PAGE.

HEK293 cells [3] = experiment: cell death by propidium iodide (PI) staining / exclusion after transfection; format: cell-based; details: HEK293, 24 h after transfection
Method: (§1) Apoptotic cell death was monitored after transfection of expression plasmids into HEK293, HeLa, MCF-7 or BMK D3 cells. 2×10^5 cells were cultured in 35-mm wells for 24 hours in Dulbecco's modified Eagle's medium (DMEM) supplemented with 10% fetal bovine serum. Cells were transfected using the Lipofectamine 2000 reagent (Invitrogen), with 1 μg of the indicated expression plasmids and further cultured in the absence or presence of 50 μM of pan-caspase inhibitor, Q-VD-OPH (OPH, Enzyme Systems Products). For morphological assessment of apoptotic cell death, cells were plated onto LabTek II chamber slides (Nalgen Nunc International) at densities of 5×10^4 cells per well. 24 hours after transfection, cells were washed with phosphate-buffered saline (PBS) prior to fixation with 4% formaldehyde. […] Cell death was also measured by propidium iodide (PI) exclusion. […] Cells were observed and photographed with a fluorescence microscope at three different fields containing approximately 200 GFP-positive cells. GFP and PI double-positive cells were counted as dead cells. Quantitative analysis of cell viability was determined by _-galactosidase reporter assay according to the procedures as described (Chittenden et al., 1995; Wood and Newcomb, 2000). […] At 24 hours following transfection, cells were harvested and β-galactosidase activity was measured using β-Galactosidase Enzyme Assay System (Promega). […]

HEK293 cells [4] = experiment: β-galactosidase reporter assay of cell viability after co-transfection; format: cell-based; details: HEK293, 24 h after co-transfection, n=5
Method: as §1

Row | Molecule | toxicity of expression in E. coli (E. coli) | toxicity of expression in E. coli (E. coli; listed as Bfl-1 TA peptide) | reversal potential for currents ([1]; 200 mM KCl (cis) / 50 mM NaCl (trans)) [mV] | rupture of the lipid bilayer, time after addition of the peptide ([1]; peptide >22.2 μM, n>30) [min] | cytochrome c release from isolated mitochondria [2] | changes in membrane conductance ([1]; peptide 11-44 μM, n=35) | cell death by PI staining (HEK293 cells [3]) | β-galactosidase activity (HEK293 cells [4]) [fold over control]
1 | KFEPKSGWMTFLEVTGKICEMLSLLKQYC ((1)..(29) ATAP peptide derived from residues 147-175 of Bfl-1; listed as Homo sapiens) [29-mer amphipathic tail-anchoring peptide corresponding to the C-terminus of Bfl1 (a.a. 147-175)] | lysis of the cells | toxic to E. coli cell growth | ~−30 | ≤ 30 | induced release of cytochrome c |  |  | 
2 | KFEP-KSGWMTFLQVTG-LICQMLSLLKQYC (KFEPKSGWMTFLEVTGLICEMLSLLKQYC; (1)..(29) K163L - ATAP; listed as Homo sapiens) [mHR7 peptide, synthetic mutant of the 29-mer ATAP peptide] |  |  |  |  | not observed | did not induce any notable changes in membrane conductance |  | 
3 | FLAG-Bfl-1: FLAG-tagged full-length Bfl-1 (protein, UniProt Q16548 1-175, looked up, full-length FLAG tag) MTDCEFGYIYRLAQDYLQCVLQIPQPGSGPSKTSRVLQNVAFSVQKEVEKNLKSCLDNVNVVSVDTARTLFNQVMEKEFEDGIINWGRIVTIFAFEGILIKKLLRQQIAPDVDTYKEISYFVAEFIMNNTGEWIRQNGGWENGFVKKFEPKSGWMTFLEVTGKICEMLSLLKQYC |  |  |  |  |  |  | no toxic effect | 1.11±0.06
